Laboratory results published in article PMC10066365, “Nemacol is a small molecule inhibitor of C. elegans vesicular acetylcholine transporter with anthelmintic potential” (Nature Communications, 2023).
“And” between values parts separate entries of the source, which are not always exact repeats. Equal entries are not always repeated. Where two headings read alike, the source gives them in different places.

How the values were obtained:
Pristionchus pacificus = Pristionchus pacificus motor disruption dose-response on solid media, 1 h; details: for mean % any phene (coiled, jerky-Unc or paralyzed): Pristionchus pacificus young adults, mean of three biological replicates; for EC50: Pristionchus pacificus, 1 h, read-out: P. pacificus motor disruption EC50
[1] = system: Dirofilaria immitis microfilariae; assay: Dirofilaria immitis microfilariae immobility assay (DiroImager, 72 h); details: for % effect (motility), DIROIM MF: Dirofilaria immitis microfilariae
In short: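 About 250 freshly purified microfilariae of the Missouri isolate per well in supplemented RPMI 1640, exposed to compound for 72 h. Motility scored by automated whole-plate optical imaging; medium with 1% DMSO as negative control.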

[2] = system: Dirofilaria immitis L3/L4; assay: Dirofilaria immitis L3/L4 motility assay (DiroImager, 72 h); details: Dirofilaria immitis L4
C. elegans = C. elegans motor phenotype scoring on solid media (Punc/jerky-unc, coiled, paralyzed), wild-type young adults; assay type: in vivo, Caenorhabditis elegans; details: for any phene, mean % fraction of young adults exhibiting any phenotype (coiled, jerky-Unc or paralyzed) / atypical locomotion (number of animals) / coiled (number of animals) / no phene (number of animals) / paralyzed (number of animals) / any phene (mean % fraction of young adults exhibiting any phenotype: coiled, jerky-Unc or paralyzed): one hour; for any phene, mean % fraction of young adults exhibiting any phenotype (coiled, jerky-Unc or paralyzed) / any phene (mean % fraction of young adults exhibiting any phenotype: coiled, jerky-Unc or paralyzed): mean of three biological replicates; for atypical locomotion (number of animals) / coiled (number of animals) / no phene (number of animals) / paralyzed (number of animals): young adults, 20 animals per trial, single replicate counts; for EC50: Caenorhabditis elegans, read-out: C. elegans - motor disruption EC50
[3] = conc 3.75, observed at one hour
[4] = any motor phenotype after 1 h on solid media, ± 95% CI
[5] = conc 3.75, count of 20 animals per trial, one hour
[6] = 3.75uM, third c14 line of each analog
[7] = 15uM, second c14 line of each analog
[8] = 60uM, first c14 line of each analog

Row | Structure (SMILES) | mean % any phene (coiled, jerky-Unc or paralyzed) (Pristionchus pacificus; [3]) | mean % any phene (coiled, jerky-Unc or paralyzed) (Pristionchus pacificus; conc 15, observed at one hour) | mean % any phene (coiled, jerky-Unc or paralyzed) (Pristionchus pacificus; conc 60, observed at one hour) [%] | EC50 (Pristionchus pacificus) [µM] | % effect (motility), DIROIM MF ([1]; 0.016 µM) [%] | % effect (motility), DIROIM MF ([1]; 0.08 µM) [%] | % effect (motility), DIROIM MF ([1]; 0.4 µM) [%] | % effect (motility), DIROIM MF ([1]; 2 µM) [%] | % effect (motility), DIROIM MF ([1]; 10 µM) [%] | % effect (motility), DIROIM L4 ([2]; 2 µM) [%] | % effect (motility), DIROIM L4 ([2]; 10 µM) [%] | % effect (motility), DIROIM L4 ([2]; 50 µM) [%] | EC50 (C. elegans; [4]) [µM] | any phene (mean % fraction of young adults exhibiting any phenotype: coiled, jerky-Unc or paralyzed) (C. elegans; [6]) [%] | any phene (mean % fraction of young adults exhibiting any phenotype: coiled, jerky-Unc or paralyzed) (C. elegans; [7]) [%] | any phene (mean % fraction of young adults exhibiting any phenotype: coiled, jerky-Unc or paralyzed) (C. elegans; [8]) [%] | other results
1 | O=C(C1CCCC1)N1CCN(c2ccc([N+](=O)[O-])cc2)CC1 [Nemacol-17] | 2.5% | 3.333% | 26.6667 | > 60 | 0 | 0 | 0 | 0 | 0 | 0 | 0 | 15 | > 60 |  |  |  | any phene, mean % fraction of young adults exhibiting any phenotype (coiled, jerky-Unc or paralyzed) (C. elegans; 3.75uM): 0%; atypical locomotion (number of animals) (C. elegans; 3.75uM): 0; coiled (number of animals) (C. elegans; 3.75uM): 0; no phene (number of animals) (C. elegans; 3.75uM): 20; paralyzed (number of animals) (C. elegans; 3.75uM): 0; any phene, mean % fraction of young adults exhibiting any phenotype (coiled, jerky-Unc or paralyzed) (C. elegans; 15uM): 0%; atypical locomotion (number of animals) (C. elegans; 15uM): 0; coiled (number of animals) (C. elegans; 15uM): 0; no phene (number of animals) (C. elegans; 15uM): 20; paralyzed (number of animals) (C. elegans; 15uM): 0; any phene, mean % fraction of young adults exhibiting any phenotype (coiled, jerky-Unc or paralyzed) (C. elegans; 60uM): 9.167%; atypical locomotion (number of animals) (C. elegans; 60uM): 0 and 2 and 3 and 6; coiled (number of animals) (C. elegans; 60uM): 0; no phene (number of animals) (C. elegans; 60uM): 20 and 18 and 17 and 14; paralyzed (number of animals) (C. elegans; 60uM): 0
2 | O=C(C1CCC1)N1CCN(c2ccc(F)cc2)CC1 [Nemacol-18] | 3.333% | 3.333% | 15.8333 | > 60 | 0 | 0 | 0 | 0 | 0 | 5 | 0 | 10 |  | 0 | 10 | 27.5 | rep 1 atypical locomotion (Pristionchus pacificus; [5]): 0; rep 1 coiled (Pristionchus pacificus; [5]): 0; rep 1 no phene (Pristionchus pacificus; [5]): 20; rep 1 paralyzed (Pristionchus pacificus; [5]): 0; rep 2 atypical locomotion (Pristionchus pacificus; [5]): 0; rep 2 coiled (Pristionchus pacificus; [5]): 0; rep 2 no phene (Pristionchus pacificus; [5]): 20; rep 2 paralyzed (Pristionchus pacificus; [5]): 0; rep 3 atypical locomotion (Pristionchus pacificus; [5]): 0; rep 3 coiled (Pristionchus pacificus; [5]): 0; rep 3 no phene (Pristionchus pacificus; [5]): 19; rep 3 paralyzed (Pristionchus pacificus; [5]): 1; EC50 (C. elegans; 1 h): > 60 µM
3 | O=[N+]([O-])c1ccc(N2CCN(C3CCCCCCC3)CC2)cc1 [Nemacol-21] | 0.8333% | 6.667% | 50 | 60 ± 10.2 | 0 | 0 | 0 | 0 | 0 |  | 0 | 0 | 19.6 ± 37.4 | 3.333 | 17.5 |  | 
4 | Cc1cc([N+](=O)[O-])ccc1N1CCN(CC2CCCCC2)CC1 [Nemacol-23, 1-(cyclohexylmethyl)−4-(2-methyl-4-nitrophenyl)piperazine] | 1.667% | 0.8333% | 7.5 | > 60 | 0 | 0 | 0 | 0 | 0 | 0 | 5 | 100 | 32.1 ± 48.2 | 15.8333 | 33.3333 | 63.3333 | 
5 | Cc1cc(N2CCN(CC3CCCCC3)CC2)ccc1[N+](=O)[O-] [Nemacol-25, 1-(cyclohexylmethyl)−4-(3-methyl-4-nitrophenyl)piperazine] | 0.8333% | 6.667% | 29.1667 | > 60 | 0 | 0 | 0 | 40 | 60 | 0 | 11 | 100 | 41 ± 26.8 | 2.5 | 20.8333 | 62.5 | EC50 ([1]; Dirofilaria immitis, 72 h, read-out: Dirofilaria immitis filariae EC50): 5.11 µM
6 | N#Cc1ccc(N2CCN(CC3CCCC3)CC2)cc1 [Nemacol-27, 4-(4-(cyclopentylmethyl)piperazin-1-yl)benzonitrile] | 9.167% and 5% | 46.6667% and 3.333% | 88.3333 | 16.4 ± 3.6 | 0 | 0 | 0 | 0 | 0 | 0 | 10 | 15 | 21.9 ± 8.2 | 0.8333 | 29.1667 | 91.3333 | 
